Publication PMC4450297, “Screening Active Compounds from Garcinia Species Native to China Reveals Novel Compounds Targeting the STAT/JAK Signaling Pathway” (BioMed Research International, 2015)

Key:
Test in all cases: Cell panel screen (CellTiter-Glo)
Assay type in all cases: cell-based, human
[1] = tested on: A498; conditions: A498 (listed under Lung), 20 micromolar, 72 hrs
Procedure, shortened: (§1)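 Single-concentration screen: 20 μM compound, 72 h, versus DMSO-only untreated cells. Viability read by CellTiter-Glo luminescence; % inhibition = (untreated − treated)/(untreated − no-cell background) × 100. Cells grown in recommended media plus 10% FBS at 37° C.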

[2] = tested on: A704; conditions: A704 (Kidney), 20 micromolar, 72 hrs
Procedure, shortened: as §1

[3] = tested on: BT-474; conditions: BT-474 (Breast), 20 micromolar, 72 hrs
Procedure, shortened: as §1

[4] = tested on: BT-549; conditions: BT-549 (Breast), 20 micromolar, 72 hrs
Procedure, shortened: as §1

[5] = tested on: Bel-7402; conditions: Bel-7402 (Liver), 20 micromolar, 72 hrs
Procedure, shortened: as §1

[6] = tested on: C3A; conditions: C3A (Liver), 20 micromolar, 72 hrs
Procedure, shortened: as §1

[7] = tested on: C8166; conditions: C8166 (Leukemia), 20 micromolar, 72 hrs
Procedure, shortened: as §1

[8] = tested on: CCF-STTG1; conditions: CCF-STTG1 (Brain), 20 micromolar, 72 hrs
Procedure, shortened: as §1

[9] = tested on: CW-2; conditions: CW-2 (Colon), 20 micromolar, 72 hrs
Procedure, shortened: as §1

[10] = tested on: ChaGo-K-1; conditions: ChaGo-K-1 (Lung), 20 micromolar, 72 hrs
Procedure, shortened: as §1

[11] = tested on: Colo 205; conditions: Colo 205, 20 micromolar, 72 hrs
Procedure, shortened: as §1

[12] = tested on: HCC1395; conditions: HCC1395 (Breast), 20 micromolar, 72 hrs
Procedure, shortened: as §1

[13] = tested on: HCC1569; conditions: HCC1569 (Breast), 20 micromolar, 72 hrs
Procedure, shortened: as §1

[14] = tested on: HCC1599; conditions: HCC1599 (Breast), 20 micromolar, 72 hrs
Procedure, shortened: as §1

[15] = tested on: HCC1937; conditions: HCC1937 (Breast), 20 micromolar, 72 hrs
Procedure, shortened: as §1

[16] = tested on: HEC-1-A; conditions: HEC-1-A (Uterus), 20 micromolar, 72 hrs
Procedure, shortened: as §1

[17] = tested on: HGC-27; conditions: HGC-27 (Stomach), 20 micromolar, 72 hrs
Procedure, shortened: as §1

[18] = tested on: HPAF-II; conditions: HPAF-II (Pancreas), 20 micromolar, 72 hrs
Procedure, shortened: as §1

[19] = tested on: HT-1197; conditions: HT-1197 (Urinary bladder), 20 micromolar, 72 hrs
Procedure, shortened: as §1

[20] = tested on: J82; conditions: J82 (Urinary bladder), 20 micromolar, 72 hrs
Procedure, shortened: as §1

[21] = tested on: M059J; conditions: M059J (Brain), 20 micromolar, 72 hrs
Procedure, shortened: as §1

[22] = tested on: MSTO-211-H; conditions: MSTO-211-H (Lung), 20 micromolar, 72 hrs
Procedure, shortened: as §1

[23] = tested on: NCI-H1623; conditions: NCI-H1623 (Lung), 20 micromolar, 72 hrs
Procedure, shortened: as §1

[24] = tested on: NCI-H1694; conditions: NCI-H1694 (Lung), 20 micromolar, 72 hrs
Procedure, shortened: as §1

[25] = tested on: NCI-H1770; conditions: NCI-H1770 (Lung), 20 micromolar, 72 hrs
Procedure, shortened: as §1

[26] = tested on: NCI-H2347; conditions: NCI-H2347 (Lung), 20 micromolar, 72 hrs
Procedure, shortened: as §1

[27] = tested on: NCI-H2405; conditions: NCI-H2405 (Lung), 20 micromolar, 72 hrs
Procedure, shortened: as §1

[28] = tested on: NCI-H28; conditions: NCI-H28 (Lung), 20 micromolar, 72 hrs
Procedure, shortened: as §1

[29] = tested on: NCI-H524; conditions: NCI-H524 (Lung), 20 micromolar, 72 hrs
Procedure, shortened: as §1

[30] = tested on: Panc 03.27; conditions: Panc 03.27 (Pancreas), 20 micromolar, 72 hrs
Procedure, shortened: as §1

[31] = tested on: RL95; conditions: RL95 (Uterus), 20 micromolar, 72 hrs
Procedure, shortened: as §1

[32] = tested on: SW13; conditions: SW13 (Adrenal gland), 20 micromolar, 72 hrs
Procedure, shortened: as §1

[33] = tested on: T47D; conditions: T47D (Breast), 20 micromolar, 72 hrs
Procedure, shortened: as §1

[34] = tested on: T98G; conditions: T98G (Brain), 20 micromolar, 72 hrs
Procedure, shortened: as §1

[35] = tested on: TCCSUP; conditions: TCCSUP (Urinary bladder), 20 micromolar, 72 hrs
Procedure, shortened: as §1

[36] = tested on: ZR-75-30; conditions: ZR-75-30 (Breast), 20 micromolar, 72 hrs
Procedure, shortened: as §1

O=C(c1ccc(O)c(O)c1)c1c(O)cc(O)cc1O [gl-25]
Percent Inhibition [1]: -10%
Percent Inhibition [2]: -5%
Percent Inhibition [3]: -3%
Percent Inhibition [4]: -10%
Percent Inhibition [5]: -5%
Percent Inhibition [6]: -3%
Percent Inhibition [7]: 3%
Percent Inhibition [8]: 9%
Percent Inhibition [9]: -2%
Percent Inhibition [10]: -26%
Percent Inhibition [11]: -1%
Percent Inhibition [12]: -8%
Percent Inhibition [13]: 1%
Percent Inhibition [14]: 11%
Percent Inhibition [15]: 0%
Percent Inhibition [16]: 5%
Percent Inhibition [17]: -3%
Percent Inhibition [18]: 1%
Percent Inhibition [19]: 5%
Percent Inhibition [20]: 1%
Percent Inhibition [21]: -9%
Percent Inhibition [22]: -30%
Percent Inhibition [23]: 0%
Percent Inhibition [24]: -12%
Percent Inhibition [25]: -10%
Percent Inhibition [26]: -13%
Percent Inhibition [27]: -9%
Percent Inhibition [28]: -9%
Percent Inhibition [29]: -74%
Percent Inhibition [30]: -14%
Percent Inhibition [31]: -8%
Percent Inhibition [32]: -10%
Percent Inhibition [33]: -8%
Percent Inhibition [34]: -2%
Percent Inhibition [35]: -5%
Percent Inhibition [36]: -3%

COc1cc(O)c2c(=O)c3ccc(O)c(O)c3oc2c1CC=C(C)C [gl-17]
Percent Inhibition [1]: 75%
Percent Inhibition [2]: 42%
Percent Inhibition [3]: 89%
Percent Inhibition [4]: 65%
Percent Inhibition [5]: 60%
Percent Inhibition [6]: 89%
Percent Inhibition [7]: 90%
Percent Inhibition [8]: 74%
Percent Inhibition [9]: 96%
Percent Inhibition [10]: 87%
Percent Inhibition [11]: 97%
Percent Inhibition [12]: 89%
Percent Inhibition [13]: 74%
Percent Inhibition [14]: 93%
Percent Inhibition [15]: 83%
Percent Inhibition [16]: 76%
Percent Inhibition [17]: 92%
Percent Inhibition [18]: 89%
Percent Inhibition [19]: 95%
Percent Inhibition [20]: 88%
Percent Inhibition [21]: 91%
Percent Inhibition [22]: 79%
Percent Inhibition [23]: 41%
Percent Inhibition [24]: 98%
Percent Inhibition [25]: 40%
Percent Inhibition [26]: 86%
Percent Inhibition [27]: 19%
Percent Inhibition [28]: 76%
Percent Inhibition [29]: 98%
Percent Inhibition [30]: 84%
Percent Inhibition [31]: 87%
Percent Inhibition [32]: 85%
Percent Inhibition [33]: 72%
Percent Inhibition [34]: 85%
Percent Inhibition [35]: 83%
Percent Inhibition [36]: 98%

COc1c(CC=C(C)C)c(O)c2c(=O)c3ccc(O)c(O)c3oc2c1CC=C(C)C [gl-9]
Percent Inhibition [1]: 86%
Percent Inhibition [2]: 88%
Percent Inhibition [3]: 94%
Percent Inhibition [4]: 96%
Percent Inhibition [5]: 96%
Percent Inhibition [6]: 77%
Percent Inhibition [7]: 96%
Percent Inhibition [8]: 92%
Percent Inhibition [9]: 99%
Percent Inhibition [10]: 97%
Percent Inhibition [11]: 97%
Percent Inhibition [12]: 98%
Percent Inhibition [13]: 93%
Percent Inhibition [14]: 95%
Percent Inhibition [15]: 94%
Percent Inhibition [16]: 85%
Percent Inhibition [17]: 97%
Percent Inhibition [18]: 85%
Percent Inhibition [19]: 97%
Percent Inhibition [20]: 99%
Percent Inhibition [21]: 92%
Percent Inhibition [22]: 98%
Percent Inhibition [23]: 85%
Percent Inhibition [24]: 100%
Percent Inhibition [25]: 93%
Percent Inhibition [26]: 82%
Percent Inhibition [27]: 93%
Percent Inhibition [28]: 86%
Percent Inhibition [29]: 99%
Percent Inhibition [30]: 92%
Percent Inhibition [31]: 98%
Percent Inhibition [32]: 99%
Percent Inhibition [33]: 90%
Percent Inhibition [34]: 98%
Percent Inhibition [35]: 96%
Percent Inhibition [36]: 99%

CC(C)=CCc1c(O)cc(O)c2c1O[C@]13C(=C[C@@H]4C[C@H]1C(C)(C)O[C@@]3(CC=C(C)C)C4=O)C2=O [GB35]
Percent Inhibition [1]: 93%
Percent Inhibition [2]: 99%
Percent Inhibition [3]: 99%
Percent Inhibition [4]: 100%
Percent Inhibition [5]: 99%
Percent Inhibition [6]: 98%
Percent Inhibition [7]: 99%
Percent Inhibition [8]: 100%
Percent Inhibition [9]: 100%
Percent Inhibition [10]: 99%
Percent Inhibition [11]: 100%
Percent Inhibition [12]: 100%
Percent Inhibition [13]: 100%
Percent Inhibition [14]: 100%
Percent Inhibition [15]: 100%
Percent Inhibition [16]: 100%
Percent Inhibition [17]: 100%
Percent Inhibition [18]: 100%
Percent Inhibition [19]: 96%
Percent Inhibition [20]: 99%
Percent Inhibition [21]: 100%
Percent Inhibition [22]: 99%
Percent Inhibition [23]: 100%
Percent Inhibition [24]: 100%
Percent Inhibition [25]: 100%
Percent Inhibition [26]: 97%
Percent Inhibition [27]: 99%
Percent Inhibition [28]: 93%
Percent Inhibition [29]: 100%
Percent Inhibition [30]: 99%
Percent Inhibition [31]: 100%
Percent Inhibition [32]: 100%
Percent Inhibition [33]: 100%
Percent Inhibition [34]: 100%
Percent Inhibition [35]: 100%
Percent Inhibition [36]: 100%

COc1cc(O)c2c(=O)c3c(CC=C(C)C)cc(O)c(O)c3oc2c1CC=C(C)CCC=C(C)C [Go-23]
Percent Inhibition [1]: 94%
Percent Inhibition [2]: 96%
Percent Inhibition [3]: 70%
Percent Inhibition [4]: 96%
Percent Inhibition [5]: 96%
Percent Inhibition [6]: 77%
Percent Inhibition [7]: 95%
Percent Inhibition [8]: 87%
Percent Inhibition [9]: 97%
Percent Inhibition [10]: 94%
Percent Inhibition [11]: 96%
Percent Inhibition [12]: 97%
Percent Inhibition [13]: 97%
Percent Inhibition [14]: 98%
Percent Inhibition [15]: 96%
Percent Inhibition [16]: 76%
Percent Inhibition [17]: 97%
Percent Inhibition [18]: 82%
Percent Inhibition [19]: 96%
Percent Inhibition [20]: 97%
Percent Inhibition [21]: 93%
Percent Inhibition [22]: 95%
Percent Inhibition [23]: 92%
Percent Inhibition [24]: 98%
Percent Inhibition [25]: 98%
Percent Inhibition [26]: 68%
Percent Inhibition [27]: 98%
Percent Inhibition [28]: 82%
Percent Inhibition [29]: 98%
Percent Inhibition [30]: 92%
Percent Inhibition [31]: 97%
Percent Inhibition [32]: 96%
Percent Inhibition [33]: 94%
Percent Inhibition [34]: 98%
Percent Inhibition [35]: 93%
Percent Inhibition [36]: 95%
